# Test results taken from ChEMBL document CHEMBL5247629, “C-6 fluorinated casuarines as highly potent and selective amyloglucosidase inhibitors: Synthesis and structure-activity relationship study” (Eur J Med Chem, 2022).
# Legend:
# [1] = biological target: Alpha-glucosidase (Saccharomyces cerevisiae S288c) (UniProt P53341+P38158+P07265); assay: Inhibition of yeast alpha-glucosidase using p-nitrophenyl glycoside as substrate at 1000 uM by spectrometric method relative to control; type: protein assay
# [2] = Inhibition of rice alpha-glucosidase using p-nitrophenyl glycoside as substrate by spectrometric method; parameters: species or system Oryza sativa
# [3] = Inhibition of rat intestinal maltase using maltose as substrate at pH 6.8 by colorimetric method; type: tissue-based, Intestine
# [4] = Inhibition of almond beta-glucosidase using p-nitrophenyl glycoside as substrate by spectrometric method; parameters: species or system Prunus dulcis
# [5] = Inhibition of bovine liver beta-glucosidase using p-nitrophenyl glycoside as substrate by spectrometric method; type: tissue-based, Bos taurus
# [6] = biological target: T1, Alpha-mannosidase (Canavalia ensiformis) (UniProt C0HJB3); assay: Inhibition of jack bean alpha-mannosidase using p-nitrophenyl glycoside as substrate at 1000 uM by spectrometric method relative to control
# T1 sequence (whole entry): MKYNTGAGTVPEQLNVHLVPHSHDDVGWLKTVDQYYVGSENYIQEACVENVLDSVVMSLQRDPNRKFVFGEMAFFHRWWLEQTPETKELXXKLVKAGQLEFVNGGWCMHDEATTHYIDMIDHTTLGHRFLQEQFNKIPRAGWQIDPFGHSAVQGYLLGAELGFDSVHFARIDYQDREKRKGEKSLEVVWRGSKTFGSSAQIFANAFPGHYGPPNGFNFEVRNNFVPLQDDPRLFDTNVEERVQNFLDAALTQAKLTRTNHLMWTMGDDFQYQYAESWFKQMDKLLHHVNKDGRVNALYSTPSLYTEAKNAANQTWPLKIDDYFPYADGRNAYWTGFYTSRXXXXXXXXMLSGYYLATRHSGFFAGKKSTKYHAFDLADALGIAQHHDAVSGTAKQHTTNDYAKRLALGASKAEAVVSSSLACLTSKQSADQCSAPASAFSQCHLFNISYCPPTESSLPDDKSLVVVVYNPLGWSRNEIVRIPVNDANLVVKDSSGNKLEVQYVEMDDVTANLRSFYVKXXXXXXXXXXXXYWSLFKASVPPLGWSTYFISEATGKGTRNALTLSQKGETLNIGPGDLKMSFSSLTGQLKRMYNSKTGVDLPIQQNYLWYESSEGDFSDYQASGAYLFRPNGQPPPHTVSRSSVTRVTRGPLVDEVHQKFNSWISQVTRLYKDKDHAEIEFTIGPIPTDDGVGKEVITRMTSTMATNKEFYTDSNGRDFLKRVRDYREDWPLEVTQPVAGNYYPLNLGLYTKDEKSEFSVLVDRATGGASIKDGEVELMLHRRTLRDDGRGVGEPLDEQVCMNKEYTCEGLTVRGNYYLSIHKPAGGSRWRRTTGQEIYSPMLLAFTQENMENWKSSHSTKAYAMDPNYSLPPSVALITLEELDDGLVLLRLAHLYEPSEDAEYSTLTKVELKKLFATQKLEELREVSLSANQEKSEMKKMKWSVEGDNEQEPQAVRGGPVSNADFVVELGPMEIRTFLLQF
# [7] = Inhibition of bovine liver beta-galactosidase using p-nitrophenyl glycoside as substrate by spectrometric method; parameters: species or system Bos taurus
# [8] = biological target: Alpha-galactosidase (Coffea arabica) (UniProt Q42656); assay: Inhibition of coffee bean alpha-galactosidase using p-nitrophenyl glycoside as substrate at 1000 uM by spectrometric method relative to control
# [9] = test system: Helix pomatia; assay: Inhibition of snail beta-mannosidase using p-nitrophenyl glycoside as substrate at 1000 uM by spectrometric method relative to control
# [10] = biological target: T2, Tissue alpha-L-fucosidase (Bos taurus) (UniProt Q2KIM0); assay: Inhibition of bovine kidney alpha-L-fucosidase using p-nitrophenyl glycoside as substrate at 1000 uM by spectrometric method relative to control; type: tissue-based
# T2 sequence (whole entry): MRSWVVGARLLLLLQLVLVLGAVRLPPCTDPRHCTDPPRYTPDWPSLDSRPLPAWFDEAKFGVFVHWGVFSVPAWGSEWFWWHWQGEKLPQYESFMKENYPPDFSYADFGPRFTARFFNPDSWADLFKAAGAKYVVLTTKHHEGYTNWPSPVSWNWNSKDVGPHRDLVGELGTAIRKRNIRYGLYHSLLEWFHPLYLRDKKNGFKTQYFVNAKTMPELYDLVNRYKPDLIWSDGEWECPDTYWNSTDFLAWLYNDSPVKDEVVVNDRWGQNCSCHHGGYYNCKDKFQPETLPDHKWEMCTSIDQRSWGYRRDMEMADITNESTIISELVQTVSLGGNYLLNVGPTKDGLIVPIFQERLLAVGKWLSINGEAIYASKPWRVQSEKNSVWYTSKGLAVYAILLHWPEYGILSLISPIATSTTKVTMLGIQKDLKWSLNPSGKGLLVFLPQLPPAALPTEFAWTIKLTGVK
# [11] = species on record: Sus scrofa; assay: Inhibition of porcine kidney alpha/alpha-trehalase using p-nitrophenyl glycoside as substrate at 1000 uM by spectrometric method relative to control; type: tissue-based
# [12] = Inhibition of Aspergillus niger amyloglucosidase using p-nitrophenyl glycoside as substrate by spectrometric method
# [13] = test system: Penicillium decumbens; assay: Inhibition of Penicillium decumbens alpha-L-rhamnosidase using p-nitrophenyl glycoside as substrate at 1000 uM by spectrometric method relative to control
# [14] = test system: Escherichia coli; assay: Inhibition of Escherichia coli beta-glucuronidase using p-nitrophenyl glycoside as substrate at 1000 uM by spectrometric method relative to control
# [15] = species on record: Bos taurus; assay: Inhibition of bovine liver beta-glucuronidase using p-nitrophenyl glycoside as substrate at 1000 uM by spectrometric method relative to control; type: tissue-based
# [16] = test system: Prunus dulcis; assay: Inhibition of almond beta-glucosidase using p-nitrophenyl glycoside as substrate at 1000 uM by spectrometric method relative to control
# [17] = species on record: Bos taurus; assay: Inhibition of bovine liver beta-glucosidase using p-nitrophenyl glycoside as substrate at 1000 uM by spectrometric method relative to control; type: tissue-based
# [18] = species on record: Bos taurus; assay: Inhibition of bovine liver beta-galactosidase using p-nitrophenyl glycoside as substrate at 1000 uM by spectrometric method relative to control; type: tissue-based
# [19] = Inhibition of porcine kidney alpha/alpha-trehalase using p-nitrophenyl glycoside as substrate by spectrometric method; parameters: species or system Sus scrofa
# [20] = biological target: Alpha-glucosidase (Saccharomyces cerevisiae S288c, UniProt P53341+P38158+P07265); assay: Inhibition of yeast alpha-glucosidase using p-nitrophenyl glycoside as substrate by spectrometric method; type: protein assay
# [21] = test system: Oryza sativa; assay: Inhibition of rice alpha-glucosidase using p-nitrophenyl glycoside as substrate at 1000 uM by spectrometric method relative to control
# [22] = species on record: Rattus norvegicus; assay: Inhibition of rat intestinal maltase using maltose as substrate at 1000 uM at pH 6.8 by colorimetric method relative to control; type: tissue-based; conditions: Intestine
# [23] = Inhibition of Penicillium decumbens alpha-L-rhamnosidase using p-nitrophenyl glycoside as substrate by spectrometric method
# Sequence of Alpha-galactosidase (Coffea arabica) (Q42656 16-378 limits assumed): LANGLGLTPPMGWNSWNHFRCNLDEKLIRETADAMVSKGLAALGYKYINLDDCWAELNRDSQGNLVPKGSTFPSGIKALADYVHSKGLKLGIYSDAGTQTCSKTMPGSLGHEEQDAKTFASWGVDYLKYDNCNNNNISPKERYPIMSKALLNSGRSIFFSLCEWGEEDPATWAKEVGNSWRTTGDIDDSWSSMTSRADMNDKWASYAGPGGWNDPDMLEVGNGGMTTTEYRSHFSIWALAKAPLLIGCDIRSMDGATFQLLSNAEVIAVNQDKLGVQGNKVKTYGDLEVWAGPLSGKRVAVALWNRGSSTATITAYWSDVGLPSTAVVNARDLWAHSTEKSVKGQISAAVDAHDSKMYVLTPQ
Compound,inhibition [1] [%],IC50 [2] [µM],IC50 [3] [µM],IC50 [4] [µM],inhibition [6] [%],inhibition [8] [%],inhibition [9] [%],inhibition [10] [%],inhibition [11] [%],IC50 [12] [µM],pIC50 [12],inhibition [13] [%],inhibition [14] [%],inhibition [15] [%],inhibition [16] [%],inhibition [17] [%],inhibition [18] [%],IC50 [19] [µM],inhibition [21] [%],also measured
OC[C@@H]1[C@@H](O)[C@H](O)[C@H]2[C@H](O)C(F)(F)CN21,24,48,167,266,6.3,1.2,0,6.8,5.9,2.1,5.678,5.6,2.6,15.9,–,–,–,–,–,IC50 [5]: 747 µM; IC50 [7]: 390 µM
OC[C@@H]1[C@@H](O)[C@H](O)[C@H]2C[C@@H](O)CN12,44.1,234,72,–,6.3,4.4,3.6,14.8,–,40,4.398,6.3,20.5,10.8,13.6,21.9,5.9,124,–,–
OC[C@@H]1[C@@H](O)[C@H](O)[C@H]2C[C@H](O)CN12,–,–,248,–,2.2,4.5,2.4,0,–,42,4.377,11.2,4.3,14,10.5,13.9,25.4,22,12.4,IC50 [20]: 466 µM
OC[C@@H]1[C@@H](O)[C@H](O)[C@H]2[C@H](O)[C@H](F)CN21,12,–,–,395,5.8,1.7,5.9,7.6,15.6,0.14,6.854,–,4.3,11.6,–,43.8,47.6,–,12.7,inhibition [22]: 33%; IC50 [23]: 488 µM
